Assay results published in ChEMBL document CHEMBL1201862, “PubChem BioAssay data set” (2004).
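All cell lines were grown in 96-well plates and treated with compound for 48 hours. GI50 = concentration required for 50% inhibition of growth.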 Active and inactive are the calls of the source. Rule as the data show it: active = GI50 up to about 1.1 µM and inactive = higher.

Assays:
Assay in all cases: NCI anticancer screen, dose series, 48 h
MDA-MB-231 = tested on: MDA-MB-231
HCT-15 = tested on: HCT-15
ACHN = tested on: ACHN
MOLT-4 = tested on: MOLT-4
OVCAR-3 = tested on: OVCAR-3
NCI/ADR-RES = tested on: NCI/ADR-RES
KM12 = tested on: KM12
786-0 = tested on: 786-0
HOP-62 = tested on: HOP-62
U-251 = tested on: U-251
OVCAR-5 = tested on: OVCAR-5
HL-60 = tested on: HL-60
SN12C = tested on: SN12C
MDA-N = tested on: MDA-N
NCI-H460 = tested on: NCI-H460
NCI-H226 = tested on: NCI-H226
SK-MEL-28 = tested on: SK-MEL-28
IGROV-1 = tested on: IGROV-1
SF-539 = tested on: SF-539

Row | Compound | GI50 (MDA-MB-231) | GI50 (HCT-15) | GI50 (ACHN) | GI50 (MOLT-4) | GI50 (OVCAR-3) | GI50 (NCI/ADR-RES) | GI50 (KM12) | GI50 (786-0) | GI50 (HOP-62) | GI50 (U-251) | GI50 (OVCAR-5) | GI50 (HL-60) | GI50 (SN12C) | GI50 (MDA-N) | GI50 (NCI-H460) | GI50 (NCI-H226) | GI50 (SK-MEL-28) | GI50 (IGROV-1) | GI50 (SF-539)
1 | CC1(C)C=[N+]([O-])C(C)(C)N1O | > 10 µM (inactive) | > 10 µM | > 10 µM (inactive) | > 10 µM (inactive) | > 10 µM (inactive) | > 10 µM (inactive) | > 10 µM (inactive) | > 10 µM (inactive) | > 10 µM (inactive) | > 10 µM (inactive) | > 10 µM (inactive) | > 10 µM (inactive) | > 10 µM (inactive) | > 10 µM (inactive) | > 10 µM (inactive) | > 10 µM (inactive) | – | – | –
2 | CC1=NN=C(N)N/C1=C/C(Sc1ccc(Cl)cc1)c1cccs1 (configuration not stated) | > 10 µM (inactive) | 6.12 µM | 12.9 µM (inactive) | 13.6 µM (inactive) | – | 18.5 µM (inactive) | 11.1 µM (inactive) | 18.5 µM (inactive) | 12.5 µM (inactive) | 24.5 µM (inactive) | 18.5 µM (inactive) | 4.07 µM (inactive) | 26.8 µM (inactive) | 16.1 µM (inactive) | 13.6 µM (inactive) | 17 µM (inactive) | 17.5 µM (inactive) | 11.4 µM (inactive) | –
3 | O=c1[nH]c(NCc2ccncc2)nc2[nH]cnc12 | > 100 µM (inactive) | > 100 µM | > 100 µM (inactive) | > 100 µM (inactive) | > 100 µM (inactive) | > 100 µM (inactive) | > 100 µM (inactive) | > 100 µM (inactive) | > 100 µM (inactive) | > 100 µM (inactive) | > 100 µM (inactive) | – | > 100 µM (inactive) | > 100 µM (inactive) | > 100 µM (inactive) | > 100 µM (inactive) | – | > 100 µM (inactive) | –
4 | C[C@H]1C[C@H]2[C@@H]3CCC4=CC(=O)C=C[C@]4(C)C3=CC[C@]2(C)[C@@]1(O)C(=O)CO | > 100 µM (inactive) | > 100 µM | > 100 µM (inactive) | 64 µM (inactive) | – | > 100 µM (inactive) | > 100 µM (inactive) | > 100 µM (inactive) | > 100 µM (inactive) | > 100 µM (inactive) | > 100 µM (inactive) | 42 µM (inactive) | > 100 µM (inactive) | > 100 µM (inactive) | > 100 µM (inactive) | > 100 µM (inactive) | > 100 µM (inactive) | > 100 µM (inactive) | –
5 | CN(C)c1nc2n(CCO)ccnc-2c(=O)n1 | > 100 µM (inactive) | > 100 µM | > 100 µM (inactive) | > 100 µM (inactive) | > 100 µM (inactive) | > 100 µM (inactive) | > 100 µM (inactive) | > 100 µM (inactive) | > 100 µM (inactive) | > 100 µM (inactive) | > 100 µM (inactive) | – | > 100 µM (inactive) | > 100 µM (inactive) | > 100 µM (inactive) | > 100 µM (inactive) | > 100 µM (inactive) | > 100 µM (inactive) | > 100 µM (inactive)
6 | NC(=O)C1=C(c2ccccc2)c2ccccc2C1=O | 17.8 µM (inactive) | 12.3 µM | 11.4 µM (inactive) | 3.37 µM (inactive) | 11.8 µM (inactive) | 17.7 µM (inactive) | 16.1 µM (inactive) | 15.7 µM (inactive) | 14.9 µM (inactive) | 18.3 µM (inactive) | 18.6 µM (inactive) | 3.57 µM (inactive) | 18.5 µM (inactive) | 19.5 µM (inactive) | 15.9 µM (inactive) | 18.2 µM (inactive) | 20.1 µM (inactive) | 16.1 µM (inactive) | –
